Measured values: PubChem BioAssay (NCI)
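48-hour exposure; five concentrations; linearly interpolated endpoints. TGI marks complete inhibition of growth.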

How the values were obtained:
Assay in all cases: growth of human tumour cells (NCI), 48 h
786-0 renal = test system: 786-0 renal
A498 renal = test system: A498 renal
ACHN renal = test system: ACHN renal
BT-549 breast = test system: BT-549 breast
CAKI-1 renal = test system: CAKI-1 renal
DU-145 prostate = test system: DU-145 prostate
EKVX NSCLC = test system: EKVX NSCLC
HCT-116 colon = test system: HCT-116 colon
HCT-15 colon = test system: HCT-15 colon
HL-60(TB) leukemia = test system: HL-60(TB) leukemia
HOP-62 NSCLC = test system: HOP-62 NSCLC
HOP-92 NSCLC = test system: HOP-92 NSCLC
HS 578T breast = test system: HS 578T breast
IGROV1 ovarian = test system: IGROV1 ovarian
K-562 leukemia = test system: K-562 leukemia
KM12 colon = test system: KM12 colon
LOX IMVI melanoma = test system: LOX IMVI melanoma
MALME-3M melanoma = test system: MALME-3M melanoma
MCF7 breast = test system: MCF7 breast
MDA-MB-231 breast = test system: MDA-MB-231 breast
MDA-MB-435 = test system: MDA-MB-435
MOLT-4 leukemia = test system: MOLT-4 leukemia
NCI-H226 lung = test system: NCI-H226 lung
NCI/ADR-RES ovarian = test system: NCI/ADR-RES ovarian
OVCAR-3 ovarian = test system: OVCAR-3 ovarian
OVCAR-5 ovarian = test system: OVCAR-5 ovarian
OVCAR-8 ovarian = test system: OVCAR-8 ovarian
PC-3 prostate = test system: PC-3 prostate
RPMI-8226 leukemia = test system: RPMI-8226 leukemia
RXF 393 renal = test system: RXF 393 renal
SF-268 CNS = test system: SF-268 CNS
SF-295 CNS = test system: SF-295 CNS
SF-539 CNS = test system: SF-539 CNS
SK-MEL-2 melanoma = test system: SK-MEL-2 melanoma
SK-MEL-28 melanoma = test system: SK-MEL-28 melanoma
SK-MEL-5 melanoma = test system: SK-MEL-5 melanoma
SK-OV-3 ovarian = test system: SK-OV-3 ovarian
SN12C renal = test system: SN12C renal
SNB-19 CNS = test system: SNB-19 CNS
SNB-75 CNS = test system: SNB-75 CNS
SW-620 colon = test system: SW-620 colon
T-47D breast = test system: T-47D breast
TK-10 renal = test system: TK-10 renal
U251 CNS = test system: U251 CNS
UACC-257 melanoma = test system: UACC-257 melanoma
UACC-62 melanoma = test system: UACC-62 melanoma
UO-31 renal = test system: UO-31 renal

Measured: TGI

O=c1cc(-c2ccccc2)[nH]c2ccc(N3CCCC3)cc12
> 52.4 µM: 786-0 renal
85.2 µM: UACC-62 melanoma
0.0703 µM: SF-539 CNS
0.0201 µM: SF-295 CNS
> 46.9 µM: U251 CNS
0.198 µM: KM12 colon
2.16 µM: SK-MEL-5 melanoma
26.1 µM: OVCAR-3 ovarian
0.0761 µM: NCI-H226 lung
< 0.0114 µM: MDA-MB-435
> 74.2 µM: HOP-62 NSCLC
> 34.8 µM: HCT-116 colon
< 0.0347 µM: HL-60(TB) leukemia
> 57.9 µM: OVCAR-8 ovarian
> 100 µM: all other assays above
